Results: US5663177A (SmithKline Beecham Corporation, priority 1995, dated 1997)

Experiments:
[1] = system: wild-type (AUX-B 1) Chinese Hamster ovary cells; assay: CHO Microtiter Cytotoxicity Assay (XTT), wild-type (AUX-B1); format: cell-based; conditions: Cricetulus griseus, AuxB1, 72 h, 3 days, read-out: Cytotoxicity IC50, Wildtype (AUX-B1)
Experimental: (§1) The in vitro assays used to test the compound of the present invention for antitumor activity are well-known. A generalized description of these assays follows.
(§2) Chinese Hamster ovary cells are grown in Alpha MEM Medium with L-glutamine and nucleosides and containing 10% fetal bovine serum and 100 units per mL penicillin-streptomycin in 75 cm^2 canted neck tissue culture flasks. They are harvested from these flasks using 0.5% trypsin. Microtiter plates (96-well, sterile, flat bottom) (Corning 25860) are seeded with 1.6×10^3 wild-type (AUX-B 1) Chinese Hamster ovary cells per well or 2×10^3 multidrug resistant (CH^R C5) Chinese Hamster ovary cells per well. The plates are incubated at 37° C., 5% CO2 overnight to allow the cells to attach. The outside wells of each plate are not used, due to evaporation during the incubation time. They are filled with medium and used as blanks. The next day, the medium is aspirated from the wells and 180 μL of fresh medium is added to each well. Compounds are diluted from stock solution in DMSO into fresh medium to a 10X concentration containing 2% DMSO. Twenty μL of this is then added to the 180 μL, of fresh medium in the wells. The plates are then incubated for another 3 days at 37° C., 5% CO2. Eight mg of XTT (SIGMA X-4251) is dissolved in 100 μL of DMSO which is then added to 3.9 mL of phosphate buffered saline without cations (PBS). Phenazine methosulfate (SIGMA P-9625) is dissolved in PBS to a concentration of 3 mg/mL and 20 μL of this is added to the XTT solution. Fifty μL of this XTT/PMS solution is added to each well of the microliter plate and the plates are incubated for 90 minutes at 37° C., 5% CO2 (until the OD450 ~1.0). The plate is then read on a UV Max plate reader, using wells without cells (i.e., containing only 200 μL of medium and 50 μL of XTT/PMS solution) as a background control.

[2] = system: P388; assay: Cytotoxicity IC50, P388; format: cell-based; conditions: Mus musculus
[3] = system: multidrug resistant (CH^R C5) Chinese Hamster ovary cells; assay: CHO Microtiter Cytotoxicity Assay (XTT), multidrug resistant (CH^R C5); format: cell-based; conditions: Cricetulus griseus, CHRC5, 72 h, 3 days
Experimental: as §1, §2

[4] = system: P388; assay: Efficacy in mouse tumor model P388 (in vivo)
Experimental: The cytotoxicity and efficacy of the compound of the present invention was also tested in vivo using the well-known P388 mouse tumor model.

[5] = system: solid tumor cancers, particularly ovarian cancer and non-small cell lung carcinoma; conditions: humans; cited from earlier work
[6] = background statement; cited from earlier work
[7] = background statement; cited from earlier work; remark: listed apart in the source
[8] = system: topoisomerase II; conditions: background statement; cited from earlier work
[9] = system: topoisomerase I; conditions: background statement; cited from earlier work

| SMILES | IC50 [1] [µM] | IC50 [2] [µM] | IC50 [3] [µM] | water solubility [6] | further results |
| --- | --- | --- | --- | --- | --- |
| CC[C@@]1(O)C(=O)OCc2c1cc1n(c2=O)Cc2c-1nc1ccc(O)c3c1c2CN(C)C3 [Formula I, S-9-ethyl-2,3-dihydro-4,9-dihydroxy-2-methyl-1H,12H-benzo[ij]pyrano[3', 4':6,7]indolizino[1,2-c][2,6]naphthyridine-10,13(H,15H)-dione] | 0.052 | 0.024 | 0.84 | – | Efficacy in Mouse Tumor Models, % Inc. in Lifespan, P388 ([4]; dose 40 mg/kg ip): 111%; biological activity (cytotoxicity and efficacy in mouse tumor models) versus topotecan ([4]; summary of Table I): comparable to topotecan |
| CC[C@@]1(O)C(=O)OCc2c1cc1n(c2=O)Cc2cc3c(CN(C)C)c(O)ccc3nc2-1 [Topotecan, 9-dimethylaminomethyl-10-hydroxycamptothecin] | 0.79 | 0.03 | 2.3 | – | Efficacy in Mouse Tumor Models, % Inc. in Lifespan, P388 ([4]; dose 14.4 mg/kg, route not given): 156%; efficacy in clinical tests [5]: demonstrated efficacy against several solid tumor cancers, particularly ovarian cancer and non-small cell lung carcinoma in humans |
| CC[C@@]1(O)C(=O)OCc2c1cc1n(c2=O)Cc2cc3c(N)cccc3nc2-1 [9-aminocamptothecin, (S)-10-amino-4-ethyl-4-hydroxy-1H-pyrano[3',4':6,7]indolizino[1,2-b]quinoline-3, 14(4H,12H)-dione] | – | – | – | limited water solubility | – |
| CCc1c2c(nc3ccc(OC(=O)N4CCC(N5CCCCC5)CC4)cc13)-c1cc3c(c(=O)n1C2)COC(=O)[C@]3(O)CC [CPT-11, (S)-[1,4'-bipiperidine]-1'-carboxylic acid,4,11-diethyl-3,4,12,14-tetrahydro-4-hydroxy-3, 14-dioxo-1H-pyrano[3',4':6,7]indolizino[1,2-b]quinolin-9-yl] | – | – | – | – | toxicity [7]: adverse toxicity profile |
| CC[C@@]1(O)C(=O)OCc2c1cc1n(c2=O)Cc2cc3ccccc3nc2-1 [Camptothecin] | 0.015 | 0.012 | 0.035 | water-insoluble | effect on topoisomerase II [8]: no effect on topoisomerase II; inhibition of topoisomerase I [9]: known to inhibit topoisomerase I |
